Among the targets are HLA-A3.2 (A*0301) (Homo sapiens, UniProt P04439); HLA-A11 (A*1101) (Homo sapiens, UniProt P04439, A114D/D185E/E176A/F33Y/L180Q/S129P/T187R); A31 (A*3101) (Homo sapiens, UniProt P04439, A270S/D185E/E176V/E277Q/F33T/G231S/G80R/H175R/I121M/I218V/I322F/K168Q/L300P/L318F/M331R/P217A/Q94H/R138Q/T323A/T345S/T97I/V358M); A*3301 (Homo sapiens, UniProt P04439, A270S/D185E/E176V/E277Q/E87N/F33T/G231S/H175R/I121M/I218V/I322F/K168Q/K210R/L300P/L318F/M331R/P217A/Q86R/Q94H/R138Q/T323A/T345S/T97I/V358M/Y195H); A*6801 (Homo sapiens, UniProt P04439, A269V/D185E/E176V/E277Q/E87N/F33Y/G231S/I121M/I166T/I218V/L180W/L300P/L318F/N151K/P208A/P217A/Q86R/R169H/T345S).

What all share (assay): biochemical
Common to all, as to assay type: binding

From US9340577B2, “HLA binding motifs and peptides and their uses” (priority 1992, dated 2016) come the findings set out here.

pIC50: −log10 of the molar value. No end group written: not given here. Where only a bound is given, the exact number is not on record here.

For FLSALKLFLK [Peptide 1587.38], the pIC50 against HLA-A3.2 (A*0301) is 6.15; at HLA-A11 (A*1101) it was 6.78; against A31 (A*3101) it was 6.01; at A*3301, 5.59; on A*6801, 5.81.

For the molecule TTSAELPK [Peptide 1556.23], the pIC50 is 4.71 on HLA-A3.2 (A*0301); 6.66 against HLA-A11 (A*1101); below 4.70 at A31 (A*3101); below 4.70 on A*3301; 5.85 against A*6801.

Take LLFYSKVRK [Peptide 78.0298]: the pIC50 against HLA-A3.2 (A*0301) is 8.41; against HLA-A11 (A*1101), 7.89; against A31 (A*3101) it was 6.40; on A*3301 it was 6.10; against A*6801, 7.64.

With SFMELVRPFK [Peptide 88.0163], the negative-log IC50 (pIC50) is 5.70 against HLA-A3.2 (A*0301); 6.70 against HLA-A11 (A*1101); 8.11 on A31 (A*3101); 8.48 on A*3301; 5.86 against A*6801.

With KISEYRHYCY [Peptide 78.0082], the pIC50 against HLA-A3.2 (A*0301) was 6.82; against HLA-A11 (A*1101) it was 6.79; at A31 (A*3101), 5.31; against A*3301, 5.63; at A*6801, 5.70.

GLYYWCDGEK [Peptide 88.0229]: the pIC50 against HLA-A3.2 (A*0301) was 6.97; at HLA-A11 (A*1101), 7.62; on A31 (A*3101) it was 5.29; on A*3301, below 4.70; against A*6801 it was 5.00.

As to LQGKLYYKFK [Peptide 88.0184], the pIC50 against HLA-A3.2 (A*0301) is 6.14; on HLA-A11 (A*1101), 6.89; at A31 (A*3101), 5.43; against A*3301, 4.79; at A*6801 it was below 4.70.

On to LTNILNVLK [Peptide 1587.02], for which the pIC50 was 6.66 against HLA-A3.2 (A*0301); 8.34 against HLA-A11 (A*1101); 6.68 on A31 (A*3101); 5.69 against A*3301; 7.92 against A*6801.

For ITYSDETQR [Peptide 88.0429], the negative-log IC50 (pIC50) was 5.53 against HLA-A3.2 (A*0301); 6.78 against HLA-A11 (A*1101); 6.06 on A31 (A*3101); 5.87 at A*3301; 7.59 against A*6801.

Turning to TLYAEPPK [Peptide 1556.12], the pIC50 against HLA-A3.2 (A*0301) was 6.13; on HLA-A11 (A*1101), 6.57; on A31 (A*3101), below 4.70; against A*3301, below 4.70; against A*6801, 5.70.

As for SQIEHWKLIR [Peptide 88.0213], the pIC50 on HLA-A3.2 (A*0301) is 4.78; against HLA-A11 (A*1101), 7.07; at A31 (A*3101) it was 6.29; against A*3301, below 4.70; at A*6801 it was 5.88.

Regarding ATMCRHYKR [Peptide 1587.08], the negative logarithm of the IC50 (pIC50) against HLA-A3.2 (A*0301) was 7.05; against HLA-A11 (A*1101) it was 7.55; against A31 (A*3101), 8.00; on A*3301 it was 7.38; against A*6801 it was 7.22.

As to STAAALYWYR [Peptide 1587.32], the pIC50 is 7.05 against HLA-A3.2 (A*0301); 8.40 on HLA-A11 (A*1101); 8.62 against A31 (A*3101); 7.55 against A*3301; 8.39 at A*6801.

Turning to NSNAAAFLK [Peptide 88.0342], the pIC50 against HLA-A3.2 (A*0301) was 6.02; at HLA-A11 (A*1101), 7.72; against A31 (A*3101), 5.58; against A*3301, 6.18; against A*6801, 7.66.

Turning to QVVPALSVSK [Peptide 1589.13], the pIC50 was 6.08 on HLA-A3.2 (A*0301); 7.60 at HLA-A11 (A*1101); 5.05 on A31 (A*3101); below 4.70 against A*3301; 7.92 on A*6801.

Take VTIRVAGQVK [Peptide 1516.04]: the pIC50 at HLA-A3.2 (A*0301) is 7.28; at HLA-A11 (A*1101) it was 7.68; on A31 (A*3101) it was 5.34; against A*3301, below 4.70; at A*6801, 7.28.

As to ATNKMFCQLAK [Peptide 1556.47], the pIC50 against HLA-A3.2 (A*0301) is 7.54; at HLA-A11 (A*1101), 8.14; against A31 (A*3101), 6.80; on A*3301 it was below 4.70; against A*6801 it was 5.79.

AVMCRHYKR [Peptide 1587.53]: the negative-log IC50 (pIC50) on HLA-A3.2 (A*0301) was 6.67; against HLA-A11 (A*1101), 7.51; against A31 (A*3101), 7.85; at A*3301, 7.23; on A*6801, 7.60.

In the case of KSCFAMSLIK [Peptide 88.0190], the pIC50 was 7.24 on HLA-A3.2 (A*0301); 7.77 on HLA-A11 (A*1101); 6.51 against A31 (A*3101); below 4.70 at A*3301; 4.91 on A*6801.

In the case of SFFSRTWSR [Peptide 1587.16], the pIC50 was 5.94 at HLA-A3.2 (A*0301); 7.59 against HLA-A11 (A*1101); 9.54 against A31 (A*3101); 9.23 against A*3301; 8.44 against A*6801.

Turning to VVPAYNISK [Peptide 88.0397], the pIC50 against HLA-A3.2 (A*0301) was 7.16; against HLA-A11 (A*1101), 7.85; at A31 (A*3101) it was below 4.70; against A*3301, below 4.70; against A*6801, 6.00.

TQQLQDLFK [Peptide 88.0374]: the negative logarithm of the IC50 (pIC50) was 5.77 against HLA-A3.2 (A*0301); 7.28 at HLA-A11 (A*1101); below 4.70 on A31 (A*3101); 5.70 on A*3301; 5.18 against A*6801.

Consider GSLQYLALK [Peptide 9017.0096], for which the pIC50 against HLA-A3.2 (A*0301) was 7.77; against HLA-A11 (A*1101) it was 8.18; against A31 (A*3101), 7.14; against A*3301, 4.84; on A*6801, 5.00.

With GLGISYGRK [Peptide 1577.25], the pIC50 against HLA-A3.2 (A*0301) is 7.19; at HLA-A11 (A*1101), 5.67; against A31 (A*3101), below 4.70; on A*3301 it was below 4.70; against A*6801 it was below 4.70.

Take HSRIGILRQR [Peptide 9017.0242]: the pIC50 on HLA-A3.2 (A*0301) is 6.20; on HLA-A11 (A*1101), 5.16; on A31 (A*3101) it was 8.01; against A*3301, 6.38; on A*6801, 6.60.

In the case of MTYVAWDSVY [Peptide 1589.07], the pIC50 against HLA-A3.2 (A*0301) is 6.21; against HLA-A11 (A*1101) it was 6.05; on A31 (A*3101) it was 4.71; against A*3301 it was below 4.70; against A*6801 it was 7.14.

On to VTVYYGVPVWR [Peptide 1525.01], for which the negative logarithm of the IC50 (pIC50) is 6.25 against HLA-A3.2 (A*0301); 7.66 at HLA-A11 (A*1101); 7.72 against A31 (A*3101); 6.29 at A*3301; 7.54 at A*6801.

YVMAGVGSPK [Peptide 9012.0253]: the pIC50 on HLA-A3.2 (A*0301) was 7.60; against HLA-A11 (A*1101) it was 7.89; on A31 (A*3101), 5.24; against A*3301, 6.66; against A*6801, 7.74.

Turning to FTDLRIVYR [Peptide 1550.08], the negative-log IC50 (pIC50) at HLA-A3.2 (A*0301) is 5.53; at HLA-A11 (A*1101), 4.98; on A31 (A*3101) it was 7.19; at A*3301, 8.01; against A*6801, 6.80.

For TTTYSPALNK [Peptide 1556.41], the pIC50 is 6.99 on HLA-A3.2 (A*0301); 8.60 against HLA-A11 (A*1101); below 4.70 at A31 (A*3101); below 4.70 at A*3301; 7.74 against A*6801.

Turning to LLLIRFKCSK [Peptide 88.0191], the negative-log IC50 (pIC50) was 6.55 on HLA-A3.2 (A*0301); 5.45 at HLA-A11 (A*1101); 6.13 at A31 (A*3101); 4.76 against A*3301; 6.06 on A*6801.

For the molecule `CSCC[C@H](NC(=O)[C@@H](NC(=O)[C@H](C)N)[C@@H](C)O)C(=O)N[C@@H](CS)C(=O)N[C@@H](CCCCN)C(=O)N[C@@H](Cc1c[nH]cn1)C(=O)N[C@@H](Cc1ccc(O)cc1)C(=O)N[C@@H](CCCNC(=N)N)C(=O)N[C@@H](CCCNC(=N)N)C(=O)O` [Peptide 88.0343], the negative-log IC50 (pIC50) against HLA-A3.2 (A*0301) is 6.66; on HLA-A11 (A*1101) it was 7.72; against A31 (A*3101) it was 7.64; against A*3301, 7.13; on A*6801 it was 7.26.

For AVNKMFCQLAK [Peptide 1556.46], the pIC50 on HLA-A3.2 (A*0301) is 7.26; on HLA-A11 (A*1101), 8.00; against A31 (A*3101), 6.55; at A*3301, below 4.70; against A*6801, 5.88.

For RLECVLMYK [Peptide 1589.12], the pIC50 was 8.06 on HLA-A3.2 (A*0301); 7.68 on HLA-A11 (A*1101); 7.36 against A31 (A*3101); 6.08 against A*3301; 5.44 against A*6801.

With AIVVWTIAY [Peptide 9017.0115], the pIC50 is 6.92 against HLA-A3.2 (A*0301); 8.04 against HLA-A11 (A*1101); 5.50 against A31 (A*3101); 5.28 against A*3301; 5.14 against A*6801.

Take FTAFLVAFK [Peptide 88.0389]: the pIC50 was 7.35 against HLA-A3.2 (A*0301); 7.82 against HLA-A11 (A*1101); 6.18 against A31 (A*3101); 7.12 on A*3301; 7.64 against A*6801.

Turning to SQWIKYRCDR [Peptide 88.0136], the pIC50 was 4.72 against HLA-A3.2 (A*0301); 4.96 at HLA-A11 (A*1101); 6.38 against A31 (A*3101); 5.57 against A*3301; below 4.70 against A*6801.

Take VTIRVGGQLR [Peptide 1516.07]: the negative-log IC50 (pIC50) is 5.49 at HLA-A3.2 (A*0301); 7.77 against HLA-A11 (A*1101); 7.49 against A31 (A*3101); 5.03 on A*3301; 7.55 against A*6801.

What is called pIC50 is the IC50 on a negative log10 scale, so that one unit is a factor of ten. Lower therefore signals a large IC50.
